Source: patent US10544142B2, “Crystal forms of palbociclib, and preparation method and use therefor” (SHANGHAI BEGREAT PHARMATECH, priority 2016, dated 2020)

How the values were obtained:
[1] = prior art statement; cited from earlier work
[2] = Solubility of crystal Forms in pH 6.8 buffer (1 hour equilibration, filtration, HPLC); format: physicochemical; conditions: for Solubility in pH 6.8 buffer: 20 mg in 1 mL, equilibrated for 1 hour, 0.45 μm filter, HPLC; for solubility in pH 6.8 buffer compared to existing crystal Forms: comparison with crystal Forms A and B
Method: The solubility of several new crystal Forms prepared in the above examples and Form A and B (prepared according to the method of WO2014128588A1) in a pH buffer solution (pH 6.8) was determined. 20 mg Form VIII, Form IX, Form XIV, Form A and Form B was precisely weighed and placed in a 2-mL glass vial, 1 mL of pH 6.8 buffer was added, sealed with cap, and mixed on a rotating mixer. After the suspension was equilibrated for 1 hour, the mixture was filtered through a 0.45 μm needle filter, and the concentration of 6-Acetyl-8-cyclopentyl-5-methyl-2-(5-piperazin-1-yl-pyridin-2-ylamino)-8H-pyrido[2,3-d]pyrimidin-7-one in the filtrate was analyzed by HPLC to obtain the solubility of different crystal Forms. The solubility of the polymorphs of 6-Acetyl-8-cyclopentyl-5-methyl-2-(5-piperazin-1-yl-pyridin-2-ylamino)-8H-pyrido[2,3-d]pyrimidin-7-one is shown in the following table: […]

[3] = Dissolution rate in pH 6.8 buffer; format: physicochemical; conditions: comparison with crystal Forms A and B

Row | Compound | solubility in water [1] | Solubility in pH 6.8 buffer [2] [mg/mL] | dissolution rate in pH 6.8 buffer compared to existing crystal Forms [3] | solubility in pH 6.8 buffer compared to existing crystal Forms [2]
1 | CC(=O)c1c(C)c2cnc(Nc3ccc(N4CCNCC4)cn3)nc2n(C2CCCC2)c1=O [Form A, 6-Acetyl-8-cyclopentyl-5-methyl-2-(5-piperazin-1-yl-pyridin-2-ylamino)-8H-pyrido[2,3-d]pyrimidin-7-one, reference compound] | very small | 0.002 |  | 
2 | CC(=O)c1c(C)c2cnc(Nc3ccc(N4CCNCC4)cn3)nc2n(C2CCCC2)c1=O [Form B, 6-Acetyl-8-cyclopentyl-5-methyl-2-(5-piperazin-1-yl-pyridin-2-ylamino)-8H-pyrido[2,3-d]pyrimidin-7-one, reference compound] | very small | 0.003 |  | 
3 | CC(=O)c1c(C)c2cnc(Nc3ccc(N4CCNCC4)cn3)nc2n(C2CCCC2)c1=O [Form IX, 6-Acetyl-8-cyclopentyl-5-methyl-2-(5-piperazin-1-yl-pyridin-2-ylamino)-8H-pyrido[2,3-d]pyrimidin-7-one] |  | 0.015 |  | 
4 | CC(=O)c1c(C)c2cnc(Nc3ccc(N4CCNCC4)cn3)nc2n(C2CCCC2)c1=O [Form VIII, 6-Acetyl-8-cyclopentyl-5-methyl-2-(5-piperazin-1-yl-pyridin-2-ylamino)-8H-pyrido[2,3-d]pyrimidin-7-one] |  | 0.010 | greater than the existing crystal Forms A and B | greater than the existing crystal Forms A and B
5 | CC(=O)c1c(C)c2cnc(Nc3ccc(N4CCNCC4)cn3)nc2n(C2CCCC2)c1=O [Form XI, 6-Acetyl-8-cyclopentyl-5-methyl-2-(5-piperazin-1-yl-pyridin-2-ylamino)-8H-pyrido[2,3-d]pyrimidin-7-one] |  |  | greater than the existing crystal Forms A and B | greater than the existing crystal Forms A and B
6 | CC(=O)c1c(C)c2cnc(Nc3ccc(N4CCNCC4)cn3)nc2n(C2CCCC2)c1=O [Form XIV, 6-Acetyl-8-cyclopentyl-5-methyl-2-(5-piperazin-1-yl-pyridin-2-ylamino)-8H-pyrido[2,3-d]pyrimidin-7-one] |  | 0.012 | greater than the existing crystal Forms A and B | greater than the existing crystal Forms A and B
